Experimental findings from ChEMBL document CHEMBL1121950, “Species- or isozyme-specific enzyme inhibitors. 9. Selective effects in inhibitions of rat pyruvate kinase isozymes by adenosine 5'-diphosphate derivatives” (J Med Chem, 1982) are described below.

Bounds are passed on as bounds.

Data set [1] has as its target Pyruvate kinase PKLR (Rattus norvegicus) (UniProt P12928). Nature of the data set: (§1) Relative half maximal velocity of Pyruvate kinase and Phosphoenolpyruvate.
The target of data set [2] is Pyruvate kinase PKM (Rattus norvegicus) (UniProt P11980). Described as §1.
Chain of Pyruvate kinase PKM (Rattus norvegicus) (P11980 whole entry): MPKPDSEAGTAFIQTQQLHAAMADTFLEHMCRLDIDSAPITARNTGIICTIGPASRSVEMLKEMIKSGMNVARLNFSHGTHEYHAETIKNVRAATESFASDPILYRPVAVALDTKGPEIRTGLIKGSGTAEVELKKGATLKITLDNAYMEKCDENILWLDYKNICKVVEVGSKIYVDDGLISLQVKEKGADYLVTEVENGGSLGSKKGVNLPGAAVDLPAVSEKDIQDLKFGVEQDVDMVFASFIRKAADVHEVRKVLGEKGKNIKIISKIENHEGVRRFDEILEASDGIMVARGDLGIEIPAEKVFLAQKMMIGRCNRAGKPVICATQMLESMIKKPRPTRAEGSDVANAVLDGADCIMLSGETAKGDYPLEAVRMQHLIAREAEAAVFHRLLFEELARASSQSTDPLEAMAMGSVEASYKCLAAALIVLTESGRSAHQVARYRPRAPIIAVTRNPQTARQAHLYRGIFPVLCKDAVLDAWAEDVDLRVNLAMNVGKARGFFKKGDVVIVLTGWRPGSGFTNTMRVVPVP
The species named for data set [3] is Rattus norvegicus. In words: Relative half maximal velocity of Pyruvate kinase to Phosphoenolpyruvate was determined.
Data set [4] concerns the target Pyruvate kinase PKLR (Rattus norvegicus) (UniProt P12928). Nature of the data set: Relative inhibitory potency as ratio of kidney and liver pyruvate kinases.
The species entered for data set [5] is Rattus norvegicus. In words: Relative inhibitory potency as ratio of muscle and liver pyruvate kinases.
Data set [6] addresses Pyruvate kinase PKLR (Rattus norvegicus) (UniProt P12928). In words: Ratio of Km(ADP)/Ki or Km for rat liver pyruvate kinase.
For data set [7], the target named is Pyruvate kinase PKM (Rattus norvegicus) (UniProt P11980). Nature of the data set: Ratio of Km(ADP)/Ki or Km for rat muscle pyruvate kinase.
For data set [8], the system named is C=CC[C@]1(COP(=O)(O)OP(=O)(O)O)OC(n2cnc3c(N)ncnc32)[C@H](O)[C@@H]1O. Nature of the data set: (§2) Michaelis-Menten constant for inhibition of pyruvate kinase obtained from rat liver (PK-L) was determined using ADP as competitive inhibitor.
Data set [9] relates to CC(=O)N(C)CCCCN(C)c1ncnc2c1ncn2[C@@H]1O[C@H](COP(=O)(O)OP(=O)(O)O)[C@@H](O)[C@H]1O. Described as §2.
Data set [10] relates to CNc1nc(N)c2ncn(C3O[C@H](COP(=O)(O)OP(=O)(O)O)[C@@H](O)[C@H]3O)c2n1. The data set is described as §2.
Data set [11] deals with CNc1nc2c(N)ncnc2n1C1O[C@H](COP(=O)(O)OP(=O)(O)O)[C@@H](O)[C@H]1O. Described as §2.
Data set [12] concerns CO[C@@H]1[C@H](O)[C@@H](COP(=O)(O)OP(=O)(O)O)O[C@H]1n1cnc2c(N)ncnc21. Described as §2.
Data set [13] relates to CSc1nc(N)c2ncn([C@@H]3O[C@H](COP(=O)(O)OP(=O)(O)O)[C@@H](O)[C@H]3O)c2n1. Described as §2.
The test system of data set [14] is C[C@H](OP(=O)(O)OP(=O)(O)O)[C@H]1OC(n2cnc3c(N)ncnc32)[C@H](O)[C@@H]1O. The data set is described as §2.
For data set [15], the system named is Nc1nc(N)c2ncn(C3O[C@H](COP(=O)(O)OP(=O)(O)O)[C@@H](O)[C@H]3O)c2n1. The data set is described as §2.
For data set [16], the system named is Nc1ncnc2c1nc(Br)n2[C@@H]1O[C@H](COP(=O)(O)OP(=O)(O)O)[C@@H](O)[C@H]1O. The description is as §2.
The test system of data set [17] is Nc1ncnc2c1ncn2[C@@H]1O[C@H](COP(=O)(O)OP(=O)(O)O)[C@@H](O)[C@H]1O. The description is as §2.
In data set [18] the target is Pyruvate kinase PKM (Rattus norvegicus) (UniProt P11980). The description is as §1. This is another data set of the same source.
In data set [19] the test system is C=CC[C@]1(COP(=O)(O)OP(=O)(O)O)OC(n2cnc3c(N)ncnc32)[C@H](O)[C@@H]1O. Nature of the data set: (§3) Michaelis-Menten constant for inhibition of pyruvate kinase obtained from rat muscle (PK-M) was determined using ADP as competitive inhibitor.
In data set [20] the test system is CC(=O)N(C)CCCCN(C)c1ncnc2c1ncn2[C@@H]1O[C@H](COP(=O)(O)OP(=O)(O)O)[C@@H](O)[C@H]1O. The description is as §3.
In data set [21] the test system is CNc1nc(N)c2ncn(C3O[C@H](COP(=O)(O)OP(=O)(O)O)[C@@H](O)[C@H]3O)c2n1. Described as §3.
Data set [22] has as its system CNc1nc2c(N)ncnc2n1C1O[C@H](COP(=O)(O)OP(=O)(O)O)[C@@H](O)[C@H]1O. The data set is described as §3.
Data set [23] deals with CO[C@@H]1[C@H](O)[C@@H](COP(=O)(O)OP(=O)(O)O)O[C@H]1n1cnc2c(N)ncnc21. Described as §3.
For data set [24], the system named is CSc1nc(N)c2ncn([C@@H]3O[C@H](COP(=O)(O)OP(=O)(O)O)[C@@H](O)[C@H]3O)c2n1. Described as §3.
Data set [25] relates to C[C@H](OP(=O)(O)OP(=O)(O)O)[C@H]1OC(n2cnc3c(N)ncnc32)[C@H](O)[C@@H]1O. The description is as §3.
The test system of data set [26] is Nc1nc(N)c2ncn(C3O[C@H](COP(=O)(O)OP(=O)(O)O)[C@@H](O)[C@H]3O)c2n1. The description is as §3.
In data set [27] the test system is Nc1ncnc2c1nc(Br)n2[C@@H]1O[C@H](COP(=O)(O)OP(=O)(O)O)[C@@H](O)[C@H]1O. The description is as §3.
Data set [28] concerns Nc1ncnc2c1ncn2[C@@H]1O[C@H](COP(=O)(O)OP(=O)(O)O)[C@@H](O)[C@H]1O. Described as §3.
The target in data set [29] is Pyruvate kinase PKM (Rattus norvegicus) (UniProt P11980). Nature of the data set: Ratio of Km(ADP)/Ki or Km for rat muscle pyruvatre kinase; (inhibitory potency at 2.35 mM).

Chain of Pyruvate kinase PKLR (Rattus norvegicus), P12928 (P12928 whole entry): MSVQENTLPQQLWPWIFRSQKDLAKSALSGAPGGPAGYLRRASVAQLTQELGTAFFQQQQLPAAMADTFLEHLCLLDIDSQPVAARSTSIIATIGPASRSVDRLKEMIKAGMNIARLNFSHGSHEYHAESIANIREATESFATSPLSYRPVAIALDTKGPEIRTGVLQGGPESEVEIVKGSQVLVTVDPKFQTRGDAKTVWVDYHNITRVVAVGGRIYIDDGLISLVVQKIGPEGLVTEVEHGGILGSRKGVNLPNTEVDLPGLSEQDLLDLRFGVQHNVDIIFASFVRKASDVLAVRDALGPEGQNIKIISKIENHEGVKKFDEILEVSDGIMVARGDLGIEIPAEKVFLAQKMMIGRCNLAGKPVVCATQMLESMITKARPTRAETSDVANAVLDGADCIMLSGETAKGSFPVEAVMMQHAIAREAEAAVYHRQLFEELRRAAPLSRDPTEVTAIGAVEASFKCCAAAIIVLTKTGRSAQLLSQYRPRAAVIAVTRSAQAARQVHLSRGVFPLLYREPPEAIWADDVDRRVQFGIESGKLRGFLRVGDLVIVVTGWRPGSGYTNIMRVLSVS
Chain of Pyruvate kinase PKLR (Rattus norvegicus) (P12928 whole entry): as above
Chain of Pyruvate kinase PKM (Rattus norvegicus), P11980 (P11980 whole entry): as the sequence (P11980 whole entry) above

Consider `CO[C@H]1[C@@H](O)[C@H](n2cnc3c(N)ncnc32)O[C@@H]1COP(=O)(O)OP(=O)(O)O`, for which the Relative Vmax in [1], in data set [2] and in data set [3] was greater than 0 in each case. Besides, the Relative inhibitory potency in data set [4] was found to be 7.6; in data set [5], 6. Moreover, the Inhibitory potency was 0.0094 in [6] and 0.056 in data set [7].

On to `CCNc1nc2c(N)ncnc2n1C1O[C@H](COP(=O)(O)OP(=O)(O)O)[C@@H](O)[C@H]1O` (some centres undefined), for which the Relative Vmax in data set [1] was less than 1; in [2], less than 1; in data set [3], 0.7. In addition, the Relative inhibitory potency in [4] came out at 1.2; in data set [5], 7.1. For the same molecule, the Inhibitory potency in data set [6] was determined as 0.14; in [7], 1.

For the molecule `CNc1nc(N)c2ncn(C3O[C@H](COP(=O)(O)OP(=O)(O)O)[C@@H](O)[C@H]3O)c2n1` (some centres undefined), the Relative Vmax turned out to be 86 in [1], 77 in data set [2] and 85 in data set [3]. The Relative inhibitory potency in [4] was 1.4; in data set [5], 1.1. Moreover, the Inhibitory potency in data set [6] was found to be 2.5; in [7] it was 2.7.

As for `C=CC[C@]1(COP(=O)(O)OP(=O)(O)O)OC(n2cnc3c(N)ncnc32)[C@H](O)[C@@H]1O` (some centres undefined), the results for the Relative Vmax in [1], in [2] and in data set [3] were 52, 7 and 11, respectively.

As to `CNc1nc2c(N)ncnc2n1C1O[C@H](COP(=O)(O)OP(=O)(O)O)[C@@H](O)[C@H]1O` (some centres undefined), the figures for the Relative Vmax in [1], in [2] and in data set [3] were 40, 55 and 49, respectively. For the same molecule, the Relative inhibitory potency was 0.45 in [4] and 0.49 in [5]. Besides, the Inhibitory potency was determined as 1.9 in data set [6] and 0.93 in data set [7].

As for `CSc1nc(N)c2ncn([C@@H]3O[C@H](COP(=O)(O)OP(=O)(O)O)[C@@H](O)[C@H]3O)c2n1`, the Relative Vmax stood at 72 in data set [1], 77 in data set [2] and 67 in data set [3]. For the same molecule, the values for the Relative inhibitory potency in data set [4] and in data set [5] were 1.12 and 0.94, respectively. For the same molecule, the Inhibitory potency amounted to 5 in [6] and 4.7 in data set [7].

For the molecule `C[C@@H](OP(=O)(O)OP(=O)(O)O)[C@H]1OC(n2cnc3c(N)ncnc32)[C@H](O)[C@@H]1O` (some centres undefined), the Relative Vmax in [1], in data set [2] and in data set [3] was greater than 0 throughout. Further, the Relative inhibitory potency came out at 1.1 in data set [4] and 2.1 in data set [5]. The Inhibitory potency in data set [6] was determined as 0.056; in [7], 0.12.

With `C[C@H](OP(=O)(O)OP(=O)(O)O)[C@H]1OC(n2cnc3c(N)ncnc32)[C@H](O)[C@@H]1O` (some centres undefined), the Relative Vmax in [1] stood at 26; in data set [2], 15; in data set [3] it was 15. The values for the Relative inhibitory potency in data set [4] and in [5] were 0.74 and 0.83, respectively. Moreover, the figures for the Inhibitory potency in data set [6] and in data set [7] were 0.23 and 0.19, respectively.

Turning to `Nc1ncnc2c1ncn2[C@@H]1O[C@H](COP(=O)(O)OP(=O)(O)O)[C@@H](O)[C@H]1O`, the Relative Vmax in [1], in [2] and in data set [3] was 100 throughout.

For the molecule `CO[C@@H]1[C@H](O)[C@@H](COP(=O)(O)OP(=O)(O)O)O[C@H]1n1cnc2c(N)ncnc21`, the results for the Relative Vmax in data set [1], in data set [2] and in data set [3] were 100, 90 and 94, respectively. The figures for the Relative inhibitory potency in data set [4] and in [5] were 1.04 and 0.86, respectively. The values for the Inhibitory potency in [6] and in data set [7] were 0.86 and 0.74, respectively.

On to “Pyruvate kinase PKLR (Rattus norvegicus), P12928”, for which the Km in data set [8] amounted to 530 µM; in [9] it was 700 µM; in [10], 120 µM; in data set [11] it was 160 µM; in data set [12] it was 350 µM; in data set [13], 61 µM. Besides, the Michaelis-Menten constant (Km) came out at 1300 µM in [14], 90 µM in data set [15], 2300 µM in data set [16] and 300 µM in data set [17].

With `CSc1nc2c(N)ncnc2n1C1O[C@H](COP(=O)(O)OP(=O)(O)O)[C@@H](O)[C@H]1O` (some centres undefined), the Relative Vmax in data set [1], in data set [2] and in [3] was 0 in each case. For the same molecule, the Relative inhibitory potency in data set [4] turned out to be 2.5; in data set [5], 3. The Inhibitory potency in data set [6] came out at 0.04; in data set [7], 0.12.

As to `Nc1nc(N)c2ncn(C3O[C@H](COP(=O)(O)OP(=O)(O)O)[C@@H](O)[C@H]3O)c2n1` (some centres undefined), the Relative Vmax in data set [1] stood at 95; in data set [2], 77; in [3], 90. The Relative inhibitory potency in [4] and in data set [5] was 0.61 in each case. In addition, the Inhibitory potency in [6] is 3.3; in [7] it was 2.

For `CC(=O)N(C)CCCCN(C)c1ncnc2c1ncn2[C@@H]1O[C@H](COP(=O)(O)OP(=O)(O)O)[C@@H](O)[C@H]1O`, the Relative inhibitory potency was found to be 0.67 in data set [4] and 0.33 in data set [5]. Besides, the Inhibitory potency in data set [6] was determined as 0.43; in [7], 0.14.

For `CC1O[C@@H]2[C@H](O1)[C@@H](COP(=O)(O)OP(=O)(O)O)O[C@H]2n1cnc2c(N)ncnc21` (some centres undefined), the Relative Vmax in data set [2] and in data set [18] was 0 in each case. In data set [5], the Relative inhibitory potency was 2.3. The Inhibitory potency in [6] was found to be 0.14; in data set [7], 0.325.

Consider `CCSc1nc2c(N)ncnc2n1C1O[C@H](COP(=O)(O)OP(=O)(O)O)[C@@H](O)[C@H]1O` (some centres undefined), for which the Relative Vmax in data set [1], in data set [2] and in data set [3] was 0 each time. For the same molecule, the Relative inhibitory potency was 3.6 in data set [4] and 3.9 in data set [5]. Also, the Inhibitory potency in data set [6] worked out at 0.036; in data set [7], 0.14.

Regarding “Pyruvate kinase PKM (Rattus norvegicus), P11980”, the Km in data set [19] came out at 1300 µM; in data set [20], 3600 µM; in data set [21], 190 µM; in data set [22] it was 560 µM; in [23], 700 µM; in data set [24], 110 µM. For the same molecule, the Km in [25] turned out to be 2700 µM; in data set [26], 260 µM; in data set [27] it was 2900 µM; in data set [28] it was 520 µM.

Take `Nc1ncnc2c1nc(Br)n2[C@@H]1O[C@H](COP(=O)(O)OP(=O)(O)O)[C@@H](O)[C@H]1O`: the figures for the Relative Vmax in data set [1], in data set [2] and in [18] were 14, 6 and 6, respectively. Moreover, the Relative inhibitory potency in data set [4] was 1.3; in data set [5] it was 1.4. The Inhibitory potency in [6] came out at 0.13; in [7], 0.18.

In the case of `CCCNc1nc2c(N)ncnc2n1C1O[C@H](COP(=O)(O)OP(=O)(O)O)[C@@H](O)[C@H]1O` (some centres undefined), the Relative Vmax in data set [2] and in [3] was 0 each time. In data set [5], the Relative inhibitory potency was 3.1. The Inhibitory potency in data set [6] came out at 0.19; in data set [29] it was 0.58.
